Values of other authors as cited in patent US20170121368A1, “NOVEL COMPOUNDS COMPRISING A BOMBESIN DERIVATIVE, A PROCESS FOR THE PREPARATION THEREOF AND A NUCLEAR MOLECULAR IMAGING AGENT COMPRISING THE SAME” (priority 2015, published 2017).
No end group written: not given here.

Tested on: human prostate cancer model
Conditions: 68Ga label, PET, human prostate cancer model in laboratory mice

GRP: Gastrin-releasing peptide labeled with 68Ga, literature PET study (VPLPAGGGTVLTKMYPRGNHWAVGHLM-NH2; ends and bridges not checked; also: 68Ga radiolabel; UniProt P07492 24-50, looked up)
uptake rate: 9.5 % ID/g
